Experimental data from the NIST ThermoML archive (doi:10.1021/je050020m).
Numbers after ± are expanded uncertainties.

Experiment: xn = mol fraction of the nth substance listed
Conditions: Liquid, Vibrating tube method

Q: With `CCCCCCCCCC` [decane] + O=C=O as the compound, how does the mass density (332.94 K, 23010 kPa, x2 = 0.9663) read?
A: The mass density was 775.39 ± 0.58 kg/m3.

Q: What about the mass density (332.94 K, 23014 kPa, x2 = 0.0551) of the same compound?
A: Its mass density is 721.3 ± 0.64 kg/m3.

Q: What about the mass density (332.94 K, 24016 kPa, x2 = 0.9663) of the same compound?
A: Its mass density is 784.64 ± 0.57 kg/m3.

Q: What about the mass density (332.94 K, 24025 kPa, x2 = 0.2369) of the same compound?
A: Its mass density is 730.17 ± 0.6 kg/m3.

Q: What about the mass density (332.94 K, 24026 kPa, x2 = 0.4536) of the same compound?
A: The mass density was 743.58 ± 0.56 kg/m3.

Q: What about the mass density (332.94 K, 24057 kPa, x2 = 0.0551) of the same compound?
A: The mass density was 722.11 ± 0.64 kg/m3.

Q: What about the mass density (332.94 K, 25006 kPa, x2 = 0.9663) of the same compound?
A: Its mass density is 793.1 ± 0.57 kg/m3.

Q: What about the mass density (332.94 K, 25022 kPa, x2 = 0.4536) of the same compound?
A: Its mass density is 744.71 ± 0.57 kg/m3.

Q: What about the mass density (332.94 K, 25028 kPa, x2 = 0.2369) of the same compound?
A: Its mass density is 731.08 ± 0.61 kg/m3.

Q: What about the mass density (332.94 K, 25048 kPa, x2 = 0.0551) of the same compound?
A: The mass density was 722.92 ± 0.65 kg/m3.

Q: What about the mass density (342.79 K, 13528 kPa, x2 = 0.9663) of the same compound?
A: Its mass density is 503.61 ± 1.2 kg/m3.

Q: What about the mass density (342.79 K, 14029 kPa, x2 = 0.9663) of the same compound?
A: Its mass density is 528.33 ± 1.1 kg/m3.

Q: What about the mass density (342.79 K, 15026 kPa, x2 = 0.9663) of the same compound?
A: Its mass density is 569.49 ± 0.97 kg/m3.

Q: What about the mass density (342.79 K, 16019 kPa, x2 = 0.9663) of the same compound?
A: The mass density was 603.24 ± 0.88 kg/m3.

Q: What about the mass density (342.79 K, 17025 kPa, x2 = 0.9663) of the same compound?
A: Its mass density is 631.6 ± 0.81 kg/m3.

Q: What about the mass density (342.79 K, 18035 kPa, x2 = 0.9663) of the same compound?
A: The mass density was 657.54 ± 0.75 kg/m3.

Q: And the mass density (342.79 K, 19000 kPa, x2 = 0.9663)?
A: Its mass density is 674.01 ± 0.7 kg/m3.

Q: What about the mass density (342.79 K, 20022 kPa, x2 = 0.9663) of the same compound?
A: Its mass density is 691.29 ± 0.68 kg/m3.

Q: What about the mass density (342.79 K, 21024 kPa, x2 = 0.9663) of the same compound?
A: The mass density was 706.16 ± 0.65 kg/m3.

Q: And the mass density (342.79 K, 22022 kPa, x2 = 0.9663)?
A: Its mass density is 719.34 ± 0.63 kg/m3.

Q: And the mass density (342.79 K, 23022 kPa, x2 = 0.9663)?
A: The mass density was 731.24 ± 0.62 kg/m3.

Q: What about the mass density (342.79 K, 24017 kPa, x2 = 0.9663) of the same compound?
A: Its mass density is 741.98 ± 0.61 kg/m3.

Q: And the mass density (342.79 K, 25006 kPa, x2 = 0.9663)?
A: The mass density was 751.96 ± 0.6 kg/m3.

Q: What about the mass density (342.84 K, 13020 kPa, x2 = 0.8114) of the same compound?
A: The mass density was 721.51 ± 1.1 kg/m3.

Q: What about the mass density (342.84 K, 14001 kPa, x2 = 0.8114) of the same compound?
A: The mass density was 726.31 ± 0.51 kg/m3.

Q: And the mass density (342.84 K, 15022 kPa, x2 = 0.8114)?
A: The mass density was 730.92 ± 0.51 kg/m3.

Q: What about the mass density (342.84 K, 16041 kPa, x2 = 0.8114) of the same compound?
A: The mass density was 735.26 ± 0.51 kg/m3.

Q: And the mass density (342.84 K, 17013 kPa, x2 = 0.8114)?
A: Its mass density is 739.14 ± 0.51 kg/m3.

Q: And the mass density (342.84 K, 18018 kPa, x2 = 0.8114)?
A: The mass density was 742.96 ± 0.51 kg/m3.

Q: And the mass density (342.84 K, 19020 kPa, x2 = 0.8114)?
A: The mass density was 746.57 ± 0.52 kg/m3.

Q: And the mass density (342.84 K, 20008 kPa, x2 = 0.8114)?
A: Its mass density is 749.98 ± 0.52 kg/m3.

Q: And the mass density (342.84 K, 21023 kPa, x2 = 0.8114)?
A: Its mass density is 753.35 ± 0.52 kg/m3.

Q: What about the mass density (342.84 K, 22003 kPa, x2 = 0.8114) of the same compound?
A: The mass density was 756.46 ± 0.52 kg/m3.

Q: And the mass density (342.84 K, 23041 kPa, x2 = 0.8114)?
A: The mass density was 759.67 ± 0.52 kg/m3.

Q: What about the mass density (342.84 K, 24026 kPa, x2 = 0.8114) of the same compound?
A: Its mass density is 762.58 ± 0.53 kg/m3.

Q: And the mass density (342.84 K, 25034 kPa, x2 = 0.8114)?
A: Its mass density is 765.48 ± 0.53 kg/m3.

Q: And the mass density (342.86 K, 2043 kPa, x2 = 0.0551)?
A: Its mass density is 694.82 ± 0.55 kg/m3.

Q: What about the mass density (342.86 K, 3006 kPa, x2 = 0.0551) of the same compound?
A: Its mass density is 695.92 ± 0.55 kg/m3.

Q: What about the mass density (342.86 K, 4043 kPa, x2 = 0.0551) of the same compound?
A: The mass density was 696.93 ± 0.55 kg/m3.

Q: What about the mass density (342.86 K, 5044 kPa, x2 = 0.0551) of the same compound?
A: The mass density was 697.98 ± 0.56 kg/m3.

Q: What about the mass density (342.86 K, 6046 kPa, x2 = 0.0551) of the same compound?
A: Its mass density is 699.02 ± 0.56 kg/m3.

Q: What about the mass density (342.86 K, 6984 kPa, x2 = 0.0551) of the same compound?
A: The mass density was 699.98 ± 0.56 kg/m3.

Q: What about the mass density (342.86 K, 8003 kPa, x2 = 0.0551) of the same compound?
A: The mass density was 701 ± 0.57 kg/m3.

Q: What about the mass density (342.86 K, 8999 kPa, x2 = 0.0551) of the same compound?
A: The mass density was 702.09 ± 0.57 kg/m3.

Q: And the mass density (342.86 K, 10007 kPa, x2 = 0.0551)?
A: Its mass density is 702.98 ± 0.58 kg/m3.

Q: What about the mass density (342.86 K, 11044 kPa, x2 = 0.0551) of the same compound?
A: Its mass density is 703.97 ± 0.58 kg/m3.

Q: And the mass density (342.86 K, 11996 kPa, x2 = 0.0551)?
A: The mass density was 704.89 ± 0.58 kg/m3.

Q: And the mass density (342.86 K, 13021 kPa, x2 = 0.0551)?
A: The mass density was 705.84 ± 0.59 kg/m3.

Q: And the mass density (342.86 K, 13997 kPa, x2 = 0.0551)?
A: The mass density was 706.74 ± 0.59 kg/m3.

Q: And the mass density (342.86 K, 15043 kPa, x2 = 0.0551)?
A: Its mass density is 707.69 ± 0.6 kg/m3.

Q: And the mass density (342.86 K, 16022 kPa, x2 = 0.0551)?
A: Its mass density is 708.54 ± 0.6 kg/m3.

Q: What about the mass density (342.86 K, 17001 kPa, x2 = 0.0551) of the same compound?
A: Its mass density is 709.54 ± 0.61 kg/m3.

Q: What about the mass density (342.86 K, 17984 kPa, x2 = 0.0551) of the same compound?
A: The mass density was 710.28 ± 0.61 kg/m3.

Q: What about the mass density (342.86 K, 19042 kPa, x2 = 0.0551) of the same compound?
A: The mass density was 711.19 ± 0.62 kg/m3.

Q: What about the mass density (342.86 K, 20017 kPa, x2 = 0.0551) of the same compound?
A: Its mass density is 712.03 ± 0.62 kg/m3.

Q: And the mass density (342.86 K, 21054 kPa, x2 = 0.0551)?
A: The mass density was 713.1 ± 0.63 kg/m3.

Q: And the mass density (342.86 K, 22022 kPa, x2 = 0.0551)?
A: Its mass density is 713.72 ± 0.63 kg/m3.

Q: And the mass density (342.86 K, 23029 kPa, x2 = 0.0551)?
A: The mass density was 714.55 ± 0.64 kg/m3.

Q: What about the mass density (342.86 K, 24018 kPa, x2 = 0.0551) of the same compound?
A: Its mass density is 715.37 ± 0.64 kg/m3.

Q: What about the mass density (342.86 K, 25025 kPa, x2 = 0.0551) of the same compound?
A: Its mass density is 716.21 ± 0.65 kg/m3.

Q: What about the mass density (342.87 K, 5031 kPa, x2 = 0.2369) of the same compound?
A: Its mass density is 702.48 ± 0.52 kg/m3.

Q: And the mass density (342.87 K, 6026 kPa, x2 = 0.2369)?
A: Its mass density is 703.7 ± 0.52 kg/m3.

Q: And the mass density (342.87 K, 7027 kPa, x2 = 0.4536)?
A: Its mass density is 711.28 ± 0.49 kg/m3.

Q: And the mass density (342.87 K, 7029 kPa, x2 = 0.2369)?
A: Its mass density is 704.93 ± 0.53 kg/m3.

Q: And the mass density (342.87 K, 8006 kPa, x2 = 0.2369)?
A: Its mass density is 706.09 ± 0.53 kg/m3.

Q: What about the mass density (342.87 K, 8024 kPa, x2 = 0.4536) of the same compound?
A: Its mass density is 712.92 ± 0.5 kg/m3.

Q: What about the mass density (342.87 K, 9027 kPa, x2 = 0.4536) of the same compound?
A: Its mass density is 714.5 ± 0.5 kg/m3.
